No end group written: not given here. *: point of attachment. sulfate = O=S(=O)(O)*
Experiments:
[1] = test system: KG-1 cells; experiment: AML KG-1 model in NOD/SCID mice; format: in vivo
Description: The in vivo mouse model for human AML uses SCID/NOD mice (Jackson Laboratories) inoculated with KG-1 cells derived from a human AML cell line.
In a first experiment, NOD/SCID mice were pretreated with 100 mg/kg CYTOXAN®. Four days post CYTOXAN® injection, KG-1 cells were injected intravenously into the tail vein of six groups of mice. (Table N, Groups 2 and 5-9). One group of mice (Table N, Group 1) was injected with PBS alone (control). [273.][273.]
Beginning 19 days post KG-1 injection mice were treated with: CONY1, Doxorubicin, CONY1-Doxorubicin conjugate, or Mylotarg®. (Mylotarg® is a monoclonal antibody (anti CD33) conjugated chemically to calcheamicin recently approved by the FDA for treatment of AML patients age 60 and over in a first relapse.) Mice were treated once or three times per week for three weeks. One group (group 2) of KG-1 inoculated mice were left untreated. (Table N). Two other groups of mice (groups 3 and 4) were injected with KG-1 cells that were previously incubated with CONY1 or 181-scFv (a negative, non-specific control antibody) in serum free RPMI containing 1% BSA at 4° C. for 1 h. The antibodies were used at a concentration of 0.25 mg scFv/10^8 cells (75 μg/mouse). Before injection into the mice the preincubated KG-1 cells were washed and resuspended in RPMI. The KG-1 cells in RPMI were inoculated into mice at a concentration of 75 μg scFv/0.2 ml RPMI per mouse. Group 3 mice were inoculated with KG-1+CONY1, and group 4 mice were inoculated with KG-1+181-scFv. (Table N). This treatment (group 3 and 4) was carried out one day after the inoculation of groups 1-2 and 5-9, i.e., at five days after CYTOXAN injection.
Mice were sacrificed from 60 to 65 days post cell injection. Bone marrow and blood samples were analyzed by flow cytometry using mouse anti human CD34-FITC (IQP 144F) (or anti CD44-FITC (MCA89F, Serotec)) and Y1-Biotin/SAV-PE. Mouse IgG1-FITC (IQP 191-F) was used as an isotype control, and mouse IgG2a-FITC (MCA929F, Serotec) was used as a negative control. Flow cytometry was performed using FACSCalibur system and CellQwest software, Becton Dickinson.
An additional experiment was performed in which SCID-NOD mice were i.v. injected with 3×10^4 MOLT-4 cells/mouse 5 days post treatment with cyclophosphamide. Anti-cancer agents or PBS were injected IV three times/week, from day 14 onward. On day 60, blood was drawn, then the animals were sacrificed. Bone marrow was extracted and analyzed by FACS analysis using a commercially available antiCD44 antibody for the detection of MOLT-4 cells in the mice bone marrow cell population.

[2] = test system: scFv Y1 binding to glycocalicin; experiment: Competitive binding ELISA of sulfated peptides (scFv Y1 binding to immobilized glycocalicin); design: species or system human; details: peptide 1, 10 and 100 μM, preincubated 10 minutes with scFv Y1
Description: A competitive binding ELISA assay was used to assess the importance of the presence and position of sulfated tyrosines to the binding of peptides to Y1.
Glycocalicin was immobilized on a Maxisorb plate. scFv Y1 was preincubated with a peptide of interest for 10 minutes at three different concentrations (1, 10 and 100 μM) in order to observe a dose response. (Table 12). After preincubation, the mixture (Y1+peptide) was added to the plate, and binding of scFv Y1 was assessed using polyclonal rabbit anti-VL, which recognizes the VL chain of scFv Y1, followed by anti-rabbit-HRP. In mixtures in which the peptide bound to scFv Y1, a decrease in the binding of scFv Y1 to glycocalicin compared to control binding was observed.

Compound: Mylotarg: monoclonal antibody (anti CD33) conjugated chemically to calcheamicin
- KG-1 cells in bone marrow ([1]; 0.2 mg/kg, 1 time per week (group 9)): free of KG 1 cells
- prevalence of bone marrow cancer, day 60 ([1]; additional experiment, 7 μg/mouse, once a week): completely inhibited

Compound: GDEGDTDLY*DY*Y*PEEDTE (GDEGDTDLY(sulfate)DY(sulfate)Y(sulfate)PEEDTE) [G-Y*Y*Y*, GPIbα peptide, sulfated]
- inhibition of Y1 binding to glycocalicin [2]: did inhibit

Compound: COc1cccc2c1C(=O)c1c(O)c3c(c(O)c1C2=O)C[C@@](O)(C(=O)CO)C[C@@H]3O[C@H]1C[C@H](N)[C@H](O)[C@H](C)O1 [Doxorubicin]
- percentage of KG-1 cells in bone marrow compared to group 2 (untreated) ([1]; 0.1 mg/kg free Doxorubicin, 3 times per week (group 6)): statistically significant (p<0.05) lower percentage of KG-1 cells
- mice that died within three weeks after treatment initiation ([1]; 5 mg/kg free Doxorubicin, 1 time per week (group 7)): Nine out of 10
- reduction in the number of tumor cells in the bone marrow ([1]; additional experiment, day 60, Doxorubicin alone or as conjugate 75 μg/mouse): 50%

Compound: QATEYEY*LDY*DFLPETE (QATEYEY(sulfate)LDY(sulfate)DFLPETE) [P-YY*Y*, PSGL-1 n-terminus peptide, sulfated]
- inhibition of Y1 binding to glycocalicin [2]: best inhibitors

— patent US20040001839A1, “Multimers - isolated molecules comprising epitopes containing sulfated moieties, antibodies to such epitopes, and uses thereof” (priority 2000, published 2004)
